Measured values taken from ChEMBL document CHEMBL1201862, “PubChem BioAssay data set” (2004).
Calls of active or inactive are those of the source.

Legend:
[1] = biological target: Nuclear receptor ROR-gamma (Homo sapiens, UniProt P51449); test: LXR, FXR and VP16 reporter activity, cell-based, luciferase reporter, ROR modulator project, late-stage follow-up, panel member RORG (AID 2117)
[2] = biological target: Nuclear receptor ROR-alpha (Homo sapiens, UniProt P35398); test: LXR, FXR and VP16 reporter activity, cell-based, luciferase reporter, ROR modulator project, late-stage follow-up, panel member RORA (AID 2117)
[3] = biological target: Lysine-specific demethylase 4A (Homo sapiens, UniProt O75164); test: inhibition of JMJD2A H3K9me3 demethylation – biochemical, DELFIA europium, cherry-picked samples, selectivity assay for GASC-1 inhibitor project, dose response (AID 488840)
[4] = biological target: T1, Lysine-specific demethylase 4C (Homo sapiens, UniProt Q9H3R0); test: inhibition of JMJD2C H3K9me3 demethylation – biochemical, DELFIA europium, cherry-picked samples, dose response (AID 488835); type: functional
T1 sequence (Q9H3R0 whole entry): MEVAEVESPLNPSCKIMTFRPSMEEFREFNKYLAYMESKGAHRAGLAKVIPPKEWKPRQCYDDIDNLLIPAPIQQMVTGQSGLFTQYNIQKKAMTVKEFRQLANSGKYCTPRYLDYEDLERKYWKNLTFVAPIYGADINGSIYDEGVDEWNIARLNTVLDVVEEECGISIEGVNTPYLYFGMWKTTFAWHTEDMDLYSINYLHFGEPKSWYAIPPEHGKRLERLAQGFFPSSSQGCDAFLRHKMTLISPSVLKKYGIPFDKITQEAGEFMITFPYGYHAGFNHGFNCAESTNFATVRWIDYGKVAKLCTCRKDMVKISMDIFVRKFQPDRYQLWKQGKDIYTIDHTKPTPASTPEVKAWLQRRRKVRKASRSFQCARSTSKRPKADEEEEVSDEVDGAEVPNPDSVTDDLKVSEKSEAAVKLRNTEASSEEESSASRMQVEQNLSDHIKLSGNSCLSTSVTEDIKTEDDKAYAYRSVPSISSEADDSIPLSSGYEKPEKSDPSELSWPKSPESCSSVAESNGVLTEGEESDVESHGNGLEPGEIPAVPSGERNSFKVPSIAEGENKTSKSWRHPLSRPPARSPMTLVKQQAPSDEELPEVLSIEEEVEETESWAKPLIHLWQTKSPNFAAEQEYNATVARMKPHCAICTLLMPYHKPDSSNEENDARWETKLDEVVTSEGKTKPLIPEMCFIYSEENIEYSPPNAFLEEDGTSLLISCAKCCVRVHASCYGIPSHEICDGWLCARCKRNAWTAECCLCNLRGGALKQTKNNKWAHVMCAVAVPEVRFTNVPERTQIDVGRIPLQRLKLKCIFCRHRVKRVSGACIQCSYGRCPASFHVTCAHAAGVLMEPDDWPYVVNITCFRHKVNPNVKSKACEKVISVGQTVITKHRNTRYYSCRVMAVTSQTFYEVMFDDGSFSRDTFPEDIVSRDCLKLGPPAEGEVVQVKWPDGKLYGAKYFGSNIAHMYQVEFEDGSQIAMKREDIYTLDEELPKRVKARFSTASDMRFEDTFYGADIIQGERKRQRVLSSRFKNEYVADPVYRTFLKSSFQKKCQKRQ

fMet-Leu-Phe receptor = biological target: T2, fMet-Leu-Phe receptor (Homo sapiens, UniProt P21462); test: formyl peptide receptor binders – dose response (AID 519); type: functional
T2 sequence (P21462 whole entry): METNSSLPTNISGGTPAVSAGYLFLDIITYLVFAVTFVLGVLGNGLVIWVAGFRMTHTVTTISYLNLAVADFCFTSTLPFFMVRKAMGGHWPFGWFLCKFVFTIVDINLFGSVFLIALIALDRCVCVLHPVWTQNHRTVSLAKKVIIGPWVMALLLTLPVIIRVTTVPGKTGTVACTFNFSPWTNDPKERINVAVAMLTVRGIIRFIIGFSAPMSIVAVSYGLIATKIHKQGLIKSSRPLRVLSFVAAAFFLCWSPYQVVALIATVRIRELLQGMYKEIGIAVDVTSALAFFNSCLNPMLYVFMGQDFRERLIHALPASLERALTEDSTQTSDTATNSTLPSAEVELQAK

Mu-type opioid receptor [5] = biological target: T3, Mu-type opioid receptor (Homo sapiens, UniProt P35372); test: SAR Analysis of Antagonists of the MOR Receptor using an Image-Based Assay - Set 2. [Related pubchem assays (depositor defined):AID1777, AID1785, AID1786, AID1966, AID2133, AID2136, AID2284, AID2285, AID2420]; type: functional
[6] = biological target: T4, Kappa-type opioid receptor (Homo sapiens, UniProt P41145); test: SAR analysis of Antagonists of the Kappa Opioid Receptor (KOR) using an Image-Based Assay - Set 2. [Related pubchem assays (depositor defined):AID1777, AID1785, AID1786, AID1966, AID2133, AID2136, AID2284, AID2285, AID2348]; type: functional
T4 sequence (P41145 whole entry): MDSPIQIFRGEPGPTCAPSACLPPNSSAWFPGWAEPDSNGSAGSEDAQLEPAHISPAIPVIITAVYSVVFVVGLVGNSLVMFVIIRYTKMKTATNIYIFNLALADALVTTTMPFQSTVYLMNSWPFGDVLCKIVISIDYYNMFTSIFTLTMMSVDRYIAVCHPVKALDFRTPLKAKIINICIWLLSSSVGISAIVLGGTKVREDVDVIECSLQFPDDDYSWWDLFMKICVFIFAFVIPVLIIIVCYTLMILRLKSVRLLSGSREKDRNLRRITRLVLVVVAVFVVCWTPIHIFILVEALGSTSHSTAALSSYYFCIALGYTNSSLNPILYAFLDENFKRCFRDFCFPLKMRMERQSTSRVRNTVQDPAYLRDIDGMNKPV

Mu-type opioid receptor [7] = biological target: T3, Mu-type opioid receptor; test: SAR Analysis of Agonists of the MOR Receptor using an Image-Based Assay - Set 2. [Related pubchem assays (depositor defined):AID1777, AID1785, AID1786, AID1966, AID2133, AID2136, AID2284, AID2285, AID2352]; type: functional
[8] = biological target: T4, Kappa-type opioid receptor; test: SAR analysis of small molecule agonists of the kappa opioid receptor via a luminescent beta-arrestin assay - Set 2. [Related pubchem assays (depositor defined):AID1777, AID1785, AID1786, AID1966, AID2133, AID2136, AID2284, AID449737]; type: functional
[9] = biological target: T5, Delta-type opioid receptor (Homo sapiens, UniProt P41143); test: SAR Analysis of Agonists of the DOR Receptor using an Image-Based Assay - Set 2. [Related pubchem assays (depositor defined):AID1777, AID1785, AID1786, AID1966, AID2133, AID2136, AID2284, AID2285, AID2370]; type: functional
T5 sequence (P41143 whole entry): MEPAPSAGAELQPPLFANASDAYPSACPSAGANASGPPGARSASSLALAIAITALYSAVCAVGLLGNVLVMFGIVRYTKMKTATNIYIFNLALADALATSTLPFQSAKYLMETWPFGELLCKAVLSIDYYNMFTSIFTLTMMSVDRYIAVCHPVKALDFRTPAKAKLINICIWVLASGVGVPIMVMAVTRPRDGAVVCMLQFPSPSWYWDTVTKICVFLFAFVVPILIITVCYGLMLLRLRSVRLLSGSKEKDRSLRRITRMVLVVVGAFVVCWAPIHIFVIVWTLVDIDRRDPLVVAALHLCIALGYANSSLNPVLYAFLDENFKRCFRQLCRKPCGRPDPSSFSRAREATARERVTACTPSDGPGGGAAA

[10] = biological target: T5, Delta-type opioid receptor; test: SAR Analysis of Antagonists of the DOR Receptor using an Image-Based Assay - Set 2. [Related pubchem assays (depositor defined):AID1777, AID1785, AID1786, AID1966, AID2133, AID2136, AID2284, AID2285, AID2357]; type: functional
[11] = biological target: T4, Kappa-type opioid receptor; test: kappa opioid receptor blockade potency – cell-based, luminescence, set 2, SAR follow-up (AID 2495); type: functional
[12] = biological target: T4, Kappa-type opioid receptor; test: SAR analysis of Agonists of the Kappa Opioid Receptor (KOR) using an Image-Based Assay - Set 2. [Related pubchem assays (depositor defined):AID1777, AID1786, AID1966, AID2133, AID2136, AID2284, AID2285, AID2359]; type: functional
[13] = biological target: T6, Mannose-6-phosphate isomerase (Homo sapiens, UniProt P34949); test: phosphomannose isomerase inhibition – biochemical, fluorescence intensity, confirmation (AID 1535)
T6 sequence (P34949 whole entry): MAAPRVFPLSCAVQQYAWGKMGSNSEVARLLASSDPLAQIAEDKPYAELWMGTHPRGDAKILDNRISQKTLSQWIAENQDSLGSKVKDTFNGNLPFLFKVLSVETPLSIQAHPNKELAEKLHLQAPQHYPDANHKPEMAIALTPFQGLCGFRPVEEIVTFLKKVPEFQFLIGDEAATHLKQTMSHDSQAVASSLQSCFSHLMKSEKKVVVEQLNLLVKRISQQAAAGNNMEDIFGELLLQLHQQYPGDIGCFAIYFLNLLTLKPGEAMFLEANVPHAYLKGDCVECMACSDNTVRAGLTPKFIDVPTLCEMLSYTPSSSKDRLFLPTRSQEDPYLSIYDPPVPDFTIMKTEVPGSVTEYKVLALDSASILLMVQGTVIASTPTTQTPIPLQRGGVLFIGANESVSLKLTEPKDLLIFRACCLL

Phosphomannomutase 2 = Phosphomannomutase 2 (Homo sapiens, UniProt O15305); test: Counter screen SAR assay for PMM2 inhibitors via a fluorescence intensity assay. [Related pubchem assays (depositor defined):AID1545, AID1574]
[14] = biological target: T7, G-protein coupled receptor 35 (Homo sapiens, UniProt Q9HC97); test: inhibition of zaprinast-stimulated GPR35 beta-arrestin translocation – imaging, U2OS, beta-arrestin-GFP, zaprinast agonist, primary screen (AID 2058); type: functional;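 further: antagonist potency meaning inhibition of agonist-induced arrestin redistribution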
T7 sequence (Q9HC97 whole entry): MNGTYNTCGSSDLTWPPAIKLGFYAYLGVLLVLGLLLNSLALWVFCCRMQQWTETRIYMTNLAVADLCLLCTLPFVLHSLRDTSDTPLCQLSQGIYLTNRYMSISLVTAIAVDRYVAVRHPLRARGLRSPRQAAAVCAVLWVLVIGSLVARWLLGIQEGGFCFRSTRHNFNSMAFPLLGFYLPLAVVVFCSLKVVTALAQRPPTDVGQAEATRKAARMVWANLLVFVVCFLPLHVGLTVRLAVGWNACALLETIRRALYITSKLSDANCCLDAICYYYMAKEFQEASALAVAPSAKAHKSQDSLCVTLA

[15] = biological target: T7, G-protein coupled receptor 35; test: SAR Analysis for the identification of Selective Antagonists of ERK1/2 Activity in GPR35-Overexpressing U2OS Cells. [Related pubchem assays: 2079, 2058 ]; type: functional, cell-based
[16] = biological target: G-protein coupled receptor 55 (Homo sapiens, UniProt Q9Y2T6); test: blockers of GPR55 signalling, imaged – imaging, image-based, counter-screen for GPR35 antagonist project, SAR follow-up (AID 2397); type: functional
Estrogen receptor beta [17] = biological target: T8, Estrogen receptor beta (Homo sapiens, UniProt Q92731);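 further: recombinant ER-beta bound to coactivator SRC1 peptide in presence of estradiol agonist; inhibitors block coactivator peptide binding and lower the FRET signal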
T8 sequence (Q92731 whole entry): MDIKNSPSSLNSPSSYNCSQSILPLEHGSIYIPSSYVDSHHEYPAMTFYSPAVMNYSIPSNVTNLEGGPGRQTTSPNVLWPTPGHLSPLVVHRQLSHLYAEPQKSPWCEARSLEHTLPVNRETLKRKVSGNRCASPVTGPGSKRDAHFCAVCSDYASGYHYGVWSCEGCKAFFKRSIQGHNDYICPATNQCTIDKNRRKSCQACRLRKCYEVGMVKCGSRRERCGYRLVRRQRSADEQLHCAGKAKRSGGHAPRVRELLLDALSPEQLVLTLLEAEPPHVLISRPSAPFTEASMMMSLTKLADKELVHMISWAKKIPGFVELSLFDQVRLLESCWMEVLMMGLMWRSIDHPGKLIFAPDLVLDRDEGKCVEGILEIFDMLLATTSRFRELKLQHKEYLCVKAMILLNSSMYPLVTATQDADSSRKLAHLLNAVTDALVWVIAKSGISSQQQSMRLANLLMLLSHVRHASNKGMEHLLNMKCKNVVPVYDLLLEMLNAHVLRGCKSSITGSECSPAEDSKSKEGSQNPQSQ

Estrogen receptor beta [18] = biological target: T8, Estrogen receptor beta; test: blockers of SRC-3 recruitment to ERβ – biochemical, ELISA, streptavidin-HRP readout, orthogonal assay, confirmation (AID 1060)
SUMO E1/E2 = SUMO E1/E2 (Homo sapiens, UniProt P63279+Q9UBE0+Q9UBT2); test: SAR analysis of SUMOylation using HTRF in an in-Vitro dose response assay. [Related pubchem assays (depositor defined):AID2006, AID2011, AID2018, AID2069, AID2658]; type: functional
[19] = biological target: T9, Voltage-gated N-type calcium channel alpha-1B subunit/Amyloid beta A4 precursor protein-binding family A member 1 (Homo sapiens, UniProt Q00975+Q02410); test: disruptors of Mint-PDZ/N-type channel peptide interaction – biochemical, HTRF, set 2, SAR follow-up (AID 434980); type: functional
T9 sequence (Q00975 whole entry): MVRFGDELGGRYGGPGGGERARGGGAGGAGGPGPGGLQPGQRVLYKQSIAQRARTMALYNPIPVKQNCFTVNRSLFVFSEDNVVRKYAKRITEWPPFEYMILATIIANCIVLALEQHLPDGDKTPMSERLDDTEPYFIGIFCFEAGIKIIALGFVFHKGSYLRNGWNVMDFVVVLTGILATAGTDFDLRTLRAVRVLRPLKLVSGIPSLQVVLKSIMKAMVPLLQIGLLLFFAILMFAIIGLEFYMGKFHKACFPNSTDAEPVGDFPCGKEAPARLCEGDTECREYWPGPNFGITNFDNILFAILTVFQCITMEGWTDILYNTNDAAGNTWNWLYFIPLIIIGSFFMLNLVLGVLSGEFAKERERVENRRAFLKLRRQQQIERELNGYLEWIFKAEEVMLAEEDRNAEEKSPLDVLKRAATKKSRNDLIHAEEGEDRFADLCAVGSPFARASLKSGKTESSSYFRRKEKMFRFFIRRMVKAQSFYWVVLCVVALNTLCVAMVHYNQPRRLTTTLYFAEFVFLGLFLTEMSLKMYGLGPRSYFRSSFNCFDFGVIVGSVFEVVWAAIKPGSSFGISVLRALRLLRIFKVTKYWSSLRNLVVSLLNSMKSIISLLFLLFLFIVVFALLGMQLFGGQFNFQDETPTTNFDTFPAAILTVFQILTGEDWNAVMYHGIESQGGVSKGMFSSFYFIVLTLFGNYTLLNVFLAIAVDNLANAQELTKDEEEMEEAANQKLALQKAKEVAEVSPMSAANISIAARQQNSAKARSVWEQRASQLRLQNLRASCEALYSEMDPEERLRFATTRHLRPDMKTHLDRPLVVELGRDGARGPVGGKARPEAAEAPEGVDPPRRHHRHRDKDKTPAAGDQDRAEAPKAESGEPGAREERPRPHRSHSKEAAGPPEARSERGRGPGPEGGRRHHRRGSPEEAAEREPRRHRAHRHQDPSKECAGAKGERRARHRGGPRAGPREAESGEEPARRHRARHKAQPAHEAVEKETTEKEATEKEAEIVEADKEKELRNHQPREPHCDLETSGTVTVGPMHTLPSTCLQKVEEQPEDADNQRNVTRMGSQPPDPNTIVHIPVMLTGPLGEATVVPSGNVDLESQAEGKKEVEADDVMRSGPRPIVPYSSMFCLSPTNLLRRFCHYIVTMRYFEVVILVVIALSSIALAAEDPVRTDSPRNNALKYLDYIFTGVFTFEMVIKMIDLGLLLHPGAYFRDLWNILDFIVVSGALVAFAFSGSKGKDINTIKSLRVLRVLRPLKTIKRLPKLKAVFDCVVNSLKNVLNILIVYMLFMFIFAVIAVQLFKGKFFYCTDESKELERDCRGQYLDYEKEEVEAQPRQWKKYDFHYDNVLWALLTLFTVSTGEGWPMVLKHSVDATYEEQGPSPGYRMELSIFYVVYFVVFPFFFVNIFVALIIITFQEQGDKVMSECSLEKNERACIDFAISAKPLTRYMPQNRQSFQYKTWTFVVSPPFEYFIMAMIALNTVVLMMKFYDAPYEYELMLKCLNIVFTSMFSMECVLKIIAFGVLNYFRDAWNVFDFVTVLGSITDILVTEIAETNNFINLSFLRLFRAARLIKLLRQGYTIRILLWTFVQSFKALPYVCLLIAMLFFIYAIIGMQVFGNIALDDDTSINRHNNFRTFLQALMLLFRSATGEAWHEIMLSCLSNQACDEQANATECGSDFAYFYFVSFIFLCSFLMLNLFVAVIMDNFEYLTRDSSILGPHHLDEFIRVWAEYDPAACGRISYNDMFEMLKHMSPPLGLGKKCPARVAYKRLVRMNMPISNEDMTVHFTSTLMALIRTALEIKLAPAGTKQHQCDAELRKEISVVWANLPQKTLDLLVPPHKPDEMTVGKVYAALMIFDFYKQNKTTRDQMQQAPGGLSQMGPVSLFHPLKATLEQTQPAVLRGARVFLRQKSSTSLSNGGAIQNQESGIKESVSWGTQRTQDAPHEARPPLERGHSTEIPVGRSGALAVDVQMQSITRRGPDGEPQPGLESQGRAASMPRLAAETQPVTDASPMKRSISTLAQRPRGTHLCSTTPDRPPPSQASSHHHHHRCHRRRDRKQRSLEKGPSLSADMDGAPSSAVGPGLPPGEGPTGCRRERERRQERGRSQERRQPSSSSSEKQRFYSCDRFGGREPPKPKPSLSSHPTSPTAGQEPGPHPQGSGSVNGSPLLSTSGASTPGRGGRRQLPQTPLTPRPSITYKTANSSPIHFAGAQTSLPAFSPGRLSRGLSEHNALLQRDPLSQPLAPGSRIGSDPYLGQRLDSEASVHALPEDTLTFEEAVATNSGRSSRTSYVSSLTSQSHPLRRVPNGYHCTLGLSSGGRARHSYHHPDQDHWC
T9 sequence (Q02410 whole entry): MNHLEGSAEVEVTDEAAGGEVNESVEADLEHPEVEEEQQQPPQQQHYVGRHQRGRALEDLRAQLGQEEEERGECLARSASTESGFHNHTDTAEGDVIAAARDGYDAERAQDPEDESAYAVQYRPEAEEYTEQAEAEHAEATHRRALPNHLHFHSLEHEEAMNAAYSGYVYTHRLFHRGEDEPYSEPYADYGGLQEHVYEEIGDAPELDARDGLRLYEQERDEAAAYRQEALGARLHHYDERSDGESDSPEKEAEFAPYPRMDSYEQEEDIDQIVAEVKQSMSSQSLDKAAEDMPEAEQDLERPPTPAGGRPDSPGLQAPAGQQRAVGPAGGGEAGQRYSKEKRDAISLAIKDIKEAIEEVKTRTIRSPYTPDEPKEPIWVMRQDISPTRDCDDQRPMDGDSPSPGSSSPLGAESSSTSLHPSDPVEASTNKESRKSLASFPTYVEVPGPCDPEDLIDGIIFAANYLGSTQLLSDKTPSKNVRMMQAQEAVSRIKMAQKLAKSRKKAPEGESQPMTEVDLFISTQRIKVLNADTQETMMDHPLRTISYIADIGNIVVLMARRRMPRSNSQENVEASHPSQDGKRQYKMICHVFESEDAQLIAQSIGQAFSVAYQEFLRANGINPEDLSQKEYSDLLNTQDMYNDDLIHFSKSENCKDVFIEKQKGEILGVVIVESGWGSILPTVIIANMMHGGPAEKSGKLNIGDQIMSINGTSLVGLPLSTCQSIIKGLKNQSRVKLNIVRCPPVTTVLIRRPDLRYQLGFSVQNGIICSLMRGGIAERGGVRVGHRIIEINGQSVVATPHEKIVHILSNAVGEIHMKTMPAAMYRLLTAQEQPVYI

[20] = biological target: T9, Voltage-gated N-type calcium channel alpha-1B subunit/Amyloid beta A4 precursor protein-binding family A member 1; test: disruptors of Mint-PDZ/N-type channel peptide interaction – biochemical, HTRF, SAR follow-up (AID 2489); type: functional
HEK293 [21] = test: inhibition of NOD1-driven NF-kB reporter – cell-based, luminescence, uHTS, primary screen (AID 1578); type: functional; conditions: Homo sapiens
HEK293 [22] = test: cells; type: functional, cell-based; conditions: Homo sapiens
HEK293 [23] = test: cells; type: functional, cell-based; conditions: Homo sapiens; remark: listed apart in the source
[24] = biological target: Nucleotide-binding oligomerization domain-containing protein 2 (Homo sapiens, UniProt Q9HC29); test: inhibition of NOD2-driven NF-kB reporter – cell-based, luminescence, uHTS, HEK293 (AID 1566); type: functional
HEK293 [25] = test: NOD2 signaling inhibitors in MDP-stimulated cells, cell-based, uHTS, luminescence (AID 2001); type: functional; conditions: Homo sapiens
HEK293 [26] = test: cells; type: functional, cell-based; conditions: Homo sapiens; remark: listed apart in the source
Tumor necrosis factor = Tumor necrosis factor (Homo sapiens, UniProt P01375); test: analog potency on TNFa NF-kB signaling – cell-based, revised, SAR follow-up (AID 2337); type: functional
Sequence of Tumor necrosis factor (P01375 whole entry, the tested form may be a part): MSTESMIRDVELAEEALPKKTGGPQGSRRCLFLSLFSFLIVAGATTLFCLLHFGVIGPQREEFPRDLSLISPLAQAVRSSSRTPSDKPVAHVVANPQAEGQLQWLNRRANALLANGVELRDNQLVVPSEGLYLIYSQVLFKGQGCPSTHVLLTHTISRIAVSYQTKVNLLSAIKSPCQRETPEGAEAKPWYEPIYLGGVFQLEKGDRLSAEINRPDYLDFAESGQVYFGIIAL

[27] = biological target: Nucleotide-binding oligomerization domain-containing protein 1 (Homo sapiens, UniProt Q9Y239); test: blockers of NOD1 pathway activity – revised, SAR follow-up (AID 2333); type: functional
H9c2 = test: cells; type: functional, cell-based; conditions: Rattus norvegicus, H9c2, Myocardium
HEK293 [28] = test: cells; conditions: Homo sapiens

## O=S(=O)(Nc1ccc(C(O)(C(F)(F)F)C(F)(F)F)cc1)c1cccc2ccccc12
[1]
  IC50: 1.94 µM (active)
[2]
  IC50: 7.75 µM (active)

## O=c1cc(N2CCc3ccccc32)[nH]c(=O)n1Cc1ccc(F)cc1
[3]
  AC50: 6.55 µM (active)
[4]
  AC50: 1.09 µM (active)
fMet-Leu-Phe receptor
  Ki: > 66.7 µM (inactive)

## CCc1ccc(S(=O)(=O)NCc2ccc(C(=O)NCCc3ccccc3)cc2)cc1
Mu-type opioid receptor [5]
  IC50: > 32 µM (inactive)
[6]
  IC50: > 32 µM (inactive)
Mu-type opioid receptor [7]
  EC50: > 32 µM (inactive)
[8]
  EC50: > 20 µM (inactive)
[9]
  EC50: > 32 µM (inactive)
[10]
  IC50: > 32 µM (inactive)
[11]
  IC50: > 20 µM (inactive)
[12]
  EC50: > 32 µM (inactive)

## Clc1nss/c1=N\c1nc2ccccc2s1
[13]
  IC50: > 100 µM (inactive)
Phosphomannomutase 2
  IC50: > 100 µM (inactive)

## Cc1nc(N2CCC(C)CC2)c2c(C)c(C(=O)Nc3ccc4c(c3)OCCO4)sc2n1
[14]
  IC50: 1.2 µM (active)
[15]
  IC50: > 32 µM (not active)
[16]
  IC50: > 32 µM (inactive)

## COc1ccc(CNC(=O)COC(=O)c2cc(-c3ccco3)nc3ccccc23)cc1
Estrogen receptor beta [17]
  IC50: < 1.56 µM (active)
Estrogen receptor beta [18]
  IC50: > 50 µM (not active)
SUMO E1/E2
  IC50: 6.59 µM (active)
[19]
  IC50: 11.4 µM (active)
[20]
  IC50: > 56.8 µM (inactive)

## Cc1c(O)ccc2c(-c3ccccc3)cc(=O)oc12
HEK293 [21]
  EC50: 16.3 µM (active)
HEK293 [22]
  IC50: 5.78 µM (active)
HEK293 [23]
  IC50: > 20 µM (inactive)
[24]
  EC50: 4.67 µM (active)
HEK293 [25]
  IC50: 6.85 µM (active)
HEK293 [26]
  IC50: > 20 µM (inactive)
Tumor necrosis factor
  IC50: 6.62 µM (active)
[27]
  IC50: 6.53 µM (active)
H9c2
  IC50: > 79 µM (inactive)
HEK293 [28]
  IC50: > 20 µM (inactive)
